Assay results: US20140073639A1 (priority 2012, published 2014)

Tests used:
B. Anthracis = assay: microbe, parasite or virus in culture; type: cell-based; settings: for inhibition at 3 µM / inhibition at 10 µM / inhibition at 30 µM: Bacillus anthracis; for inhibition at 3 µM: read-out: B. Anthracis 3 μM (growth inhibition); for inhibition at 10 µM: read-out: B. Anthracis 10 μM (growth inhibition); for inhibition at 30 µM: read-out: B. Anthracis 30 μM (growth inhibition)
S. MRSA = assay: microbe, parasite or virus in culture; type: cell-based; settings: Staphylococcus aureus, MRSA; for inhibition at 3 µM: read-out: S. MRSA 3 μM (growth inhibition); for inhibition at 10 µM: read-out: S. MRSA 10 μM (growth inhibition); for inhibition at 30 µM: read-out: S. MRSA 30 μM (growth inhibition)

Work on `CCN1C(=O)NC(=O)/C(=C\c2ccc(-c3ccc(Cl)c(C(=O)O)c3)o2)C1=O` [Cmpd 30] yielded an inhibition at 3 µM (B. Anthracis) of -8.49%, an inhibition at 10 µM (B. Anthracis; 10 μM) of 1% and an inhibition at 30 µM (B. Anthracis) of -11.6%. For the same molecule, the inhibition at 3 µM (S. MRSA) was 1.47%, the inhibition at 10 µM (S. MRSA) was -2.94% and the inhibition at 30 µM (S. MRSA) was -4.41%.

In the case of `CC(C)C(C(=O)O)N1C(=O)/C(=C2/C(=O)Nc3ccccc32)SC1=S` (stereo not shown) [Cmpd 5], the “B. Anthracis 10 μM (growth inhibition)” value (B. Anthracis; 10 μM) is reported as −1.33, the inhibition at 30 µM (B. Anthracis) is reported as 11.2% and the inhibition at 10 µM (S. MRSA) is reported as 15.9%. It also gave an inhibition at 30 µM (S. MRSA) of 40.6%.

In the case of `O=C1NC(=O)C(=Cc2ccc(Br)o2)C(=O)N1` [Cmpd 19], the inhibition at 3 µM (B. Anthracis) is reported as 3.33%, the inhibition at 10 µM (B. Anthracis; 10 μM) is reported as 10.7% and the inhibition at 30 µM (B. Anthracis) is reported as 12.9%. For the same molecule, the inhibition at 3 µM (S. MRSA) was -1.4%, the inhibition at 10 µM (S. MRSA) was 2% and the inhibition at 30 µM (S. MRSA) was 12.6%.

`O=C(O)C(Cc1ccccc1)N1C(=O)/C(=C\c2ccc(-c3ccc(Br)c(Cl)c3)o2)NC1=S` (stereo not shown) [Cmpd 40] was tested, and the inhibition at 3 µM (B. Anthracis) was 98.1%, the inhibition at 10 µM (B. Anthracis; 10 μM) was 98.1% and the inhibition at 30 µM (B. Anthracis) was 98.1%. It also gave an inhibition at 3 µM (S. MRSA) of 17.9%, an inhibition at 10 µM (S. MRSA) of 95.7% and an inhibition at 30 µM (S. MRSA) of 95.7%.

`CCOc1cccc(N2C(=O)/C(=C/c3ccc(-c4cc(C(=O)O)ccc4Cl)o3)C(=O)NC2=S)c1` [Cmpd 27] was tested, and the inhibition at 3 µM (B. Anthracis) was -9.26%, the inhibition at 10 µM (B. Anthracis; 10 μM) was 0% and the inhibition at 30 µM (B. Anthracis) was -11.6%. The inhibition at 3 µM (S. MRSA) was 0.74%, the inhibition at 10 µM (S. MRSA) was 8.82% and the inhibition at 30 µM (S. MRSA) was -0.74%.

`O=C(O)[C@H](Cc1ccccc1)N1C(=O)/C(=C\c2ccc(-c3cc(Cl)cc(Cl)c3)o2)NC1=S` [Cmpd 51] gave an inhibition at 3 µM (B. Anthracis) of -0.16%, an inhibition at 10 µM (B. Anthracis; 10 μM) of -3.08% and an inhibition at 30 µM (B. Anthracis) of 99.3%. It also gave an inhibition at 3 µM (S. MRSA) of -0.61%, an inhibition at 10 µM (S. MRSA) of -7.03% and an inhibition at 30 µM (S. MRSA) of 85.3%.

Work on `O=C1NC(=S)NC(=O)C1=Cc1ccc(-c2cccc(C(=O)O)c2)o1` [Cmpd 28] yielded an inhibition at 3 µM (B. Anthracis) of -9.26%, an inhibition at 10 µM (B. Anthracis; 10 μM) of -3.09% and an inhibition at 30 µM (B. Anthracis) of -13.1%. The inhibition at 3 µM (S. MRSA) was -0.74%, the inhibition at 10 µM (S. MRSA) was -2.21% and the inhibition at 30 µM (S. MRSA) was -3.68%.

With `O=C(O)C(Cc1ccccc1)N1C(=O)/C(=C\c2ccc(-c3ccc(Cl)cc3)s2)NC1=S` (stereo not shown) [Cmpd 35] the inhibition at 3 µM (B. Anthracis) was -5.4%, the inhibition at 10 µM (B. Anthracis; 10 μM) was 100% and the inhibition at 30 µM (B. Anthracis) was 100%. It also gave an inhibition at 3 µM (S. MRSA) of -2.94%, an inhibition at 10 µM (S. MRSA) of -1.47% and an inhibition at 30 µM (S. MRSA) of 91%.

Molecule `O=C(O)C(Cc1ccccc1)N1C(=O)/C(=C\c2ccc(-c3ccc(Cl)c(Cl)c3)o2)NC1=S` (stereo not shown) [Cmpd 42] has an inhibition at 3 µM (B. Anthracis) of 96.2%, an inhibition at 10 µM (B. Anthracis; 10 μM) of 99.5% and an inhibition at 30 µM (B. Anthracis) of 96.7%. For the same molecule, the inhibition at 10 µM (S. MRSA) was 98.7% and the inhibition at 30 µM (S. MRSA) was 94.5%.

`O=C1NC(=S)N(c2ccc(Cl)cc2)C(=O)/C1=C/c1ccc(-c2ccccc2C(=O)O)o1` [Cmpd 26] gave an inhibition at 3 µM (B. Anthracis) of 2.32%, an inhibition at 10 µM (B. Anthracis; 10 μM) of 97% and an inhibition at 30 µM (B. Anthracis) of 100%. The inhibition at 3 µM (S. MRSA) was 1.47%, the inhibition at 10 µM (S. MRSA) was 16.1% and the inhibition at 30 µM (S. MRSA) was 92.4%.

In the case of `O=C1NC(=S)NC(=O)C1=Cc1ccc(-c2ccc(Cl)cc2)o1` [Cmpd 15], the inhibition at 10 µM (B. Anthracis; 10 μM) is reported as 3.62%, the inhibition at 30 µM (B. Anthracis) is reported as 42.2% and the inhibition at 10 µM (S. MRSA) is reported as 20%. For the same molecule, the inhibition at 30 µM (S. MRSA) was 63.2%.

`CN1C(=O)/C(=C/c2ccc(-c3ccc(Br)c(Cl)c3)o2)C(=O)NC1=S` [Cmpd 29] was tested, and the inhibition at 10 µM (B. Anthracis; 10 μM) was 80%, the inhibition at 30 µM (B. Anthracis) was 90.1% and the inhibition at 10 µM (S. MRSA) was 52.9%. The inhibition at 30 µM (S. MRSA) was 86.8%.

`O=C(O)CC(C(=O)O)N1C(=O)/C(=C2/C(=O)Nc3ccc(Br)cc32)SC1=S` (stereo not shown) [Cmpd 21] was tested, and the inhibition at 3 µM (B. Anthracis) was 15.8%, the inhibition at 10 µM (B. Anthracis; 10 μM) was 13.1% and the inhibition at 30 µM (B. Anthracis) was 14.2%. For the same molecule, the inhibition at 3 µM (S. MRSA) was -6.99%, the inhibition at 10 µM (S. MRSA) was -2.11% and the inhibition at 30 µM (S. MRSA) was -2.11%.

`O=C(O)C(Cc1ccccc1)N1C(=O)/C(=C\c2ccc(-c3ccc(Br)cc3)s2)NC1=S` (stereo not shown) [Cmpd 36] showed an inhibition at 3 µM (B. Anthracis) of 76.9%, an inhibition at 10 µM (B. Anthracis; 10 μM) of 97.7% and an inhibition at 30 µM (B. Anthracis) of 96.7%. It also gave an inhibition at 3 µM (S. MRSA) of -19.2%, an inhibition at 10 µM (S. MRSA) of 91.1% and an inhibition at 30 µM (S. MRSA) of 91.1%.

`COc1ccc(-c2nnc(-c3ccccc3)o2)cc1S(=O)(=O)Nc1cc2c(cc1C#N)OCO2` [Cmpd 7] showed an inhibition at 10 µM (B. Anthracis; 10 μM) of 19.6%, an inhibition at 30 µM (B. Anthracis) of 74.9% and an inhibition at 10 µM (S. MRSA) of -7.79%. For the same molecule, the inhibition at 30 µM (S. MRSA) was -1.62%.

`O=C1NC(=S)NC(=O)C1=Cc1ccc(-c2cccc(Cl)c2)o1` [Cmpd 14] gave an inhibition at 10 µM (B. Anthracis; 10 μM) of 3.62%, an inhibition at 30 µM (B. Anthracis) of 27.2% and an inhibition at 10 µM (S. MRSA) of 7.65%. The inhibition at 30 µM (S. MRSA) was 47.8%.

Work on `O=C(O)C(Cc1ccccc1)N1C(=O)/C(=C\c2ccc(-c3ccc(F)cc3)s2)NC1=S` (stereo not shown) [Cmpd 34] yielded an inhibition at 3 µM (B. Anthracis) of 0%, an inhibition at 10 µM (B. Anthracis; 10 μM) of 6.99% and an inhibition at 30 µM (B. Anthracis) of 98.8%. The inhibition at 3 µM (S. MRSA) was -15.8%, the inhibition at 10 µM (S. MRSA) was -24.8% and the inhibition at 30 µM (S. MRSA) was 46.2%.

`CC(=O)C(Cc1ccccc1)N1C(=O)/C(=C2/C(=O)Nc3cc(Cl)c(Cl)cc32)NC1=S` (stereo not shown) [Cmpd 49] was tested, and the inhibition at 3 µM (B. Anthracis) was 1.73%, the inhibition at 10 µM (B. Anthracis; 10 μM) was -7.49% and the inhibition at 30 µM (B. Anthracis) was 97.2%. For the same molecule, the inhibition at 3 µM (S. MRSA) was -7.73%, the inhibition at 10 µM (S. MRSA) was -20.3% and the inhibition at 30 µM (S. MRSA) was -26.3%.

`CCc1ccccc1N1C(=O)/C(=C/c2ccc(-c3cc(C(=O)O)ccc3Cl)o2)C(=O)NC1=S` [Cmpd 24] showed an inhibition at 3 µM (B. Anthracis) of -10.8%, an inhibition at 10 µM (B. Anthracis; 10 μM) of -4.63% and an inhibition at 30 µM (B. Anthracis) of -10.8%. The inhibition at 3 µM (S. MRSA) was -2.94%, the inhibition at 10 µM (S. MRSA) was 2.2% and the inhibition at 30 µM (S. MRSA) was -5.88%.
